Measurements from paper PMC4691102, “Antioxidant and ACE Inhibitory Bioactive Peptides Purified from Egg Yolk Proteins” (International Journal of Molecular Sciences, 2015).

What was measured:
[1] = DPPH radical scavenging activity; details: for DPPH Scavenging activity: standard 0.2 mg/mL, 60 min, room temperature, dark, 517 nm, mean ± SD of three independent experiments; for Antioxidant activity (DPPH scavenging) of peptide compared with synthetic antioxidant: peptide 10 mg/mL versus 0.2 mg/mL BHT (Figure 7), abstract prints BHA
Procedure: The method used was in accordance with Bersuder et al. using the synthetic free radical DPPH. Briefly, a volume of 500 μL of selected fractions at different concentrations (0.5, 1, 5, 10 and 20 mg/mL) was mixed with 500 μL of 99.5% ethanol and 125 μL of 0.02% w/v DPPH prepared previously in 99.5% ethanol. The mixture was shaken vigorously then kept at room temperature in the dark. After 60 min, the color reduction of the DPPH substrate was measured at an absorbance of 517 nm. Trolox and BHT (both used at concentration 0.2 mg/mL) were also tested as positive controls for comparison. The DPPH radical scavenging activity was calculated as follows: Radical scavenging activity (%)=AC−AS/AC×100 where AC is the absorbance for negative control using 500 μL deionized water instead of sample, AS is the absorbance of the sample or positive controls (trolox/BHT). A lower absorbance of the reaction mixture indicated a higher DPPH radical-scavenging activity.

[2] = Superoxide anion scavenging activity (pyrogallol autoxidation); details: standard 0.2 mg/mL, Tris-HCl pH 8.2, 25 °C, 320 nm, mean ± SD of three independent experiments
Procedure: In this assay, the alkaline condition enhances the autoxidation of pyrogallol to produce a superoxide anion, which, in turn, accelerates the autoxidation process by autocatalysis. The autoxidation of a pyrogallol method described by Marklund and Marklund was applied to measure the superoxide anion scavenging power of egg yolk peptides. The reaction mixture consisted of 1.0 mL of peptides sample at different concentrations ([…], 5.0, 10 and 20 mg/mL) and 1.8 mL of 50 mM Tris-HCl buffer, previously adjusted to pH 8.2. The mixture was incubated at 25 °C for 20 min. Then, 40 μL of 45 mM pyrogallol (prepared previously in 10 mM HCl) was added. The absorbance of the reaction mixture was measured at 320 nm immediately after adding pyrogallol at 1 min intervals up to 4 min. Trolox and BHT (both used at a concentration of 0.2 mg/mL) were also tested as positive controls for comparison.

[3] = Hydroxyl radical scavenging activity (HRSA) assay; details: standard 0.2 mg/mL, 37 °C 1 h, pH 7.4, 532 nm, mean ± SD of three independent experiments
Procedure: The HRSA assay was performed as described by Wu et al.. The reaction mixture consisted of 0.1 mL of 10 mM FeSO4, 0.1 mL of 10 mM EDTA, 0.5 mL of 10 mM α-deoxyribose, 0.9 mL sodium phosphate buffer pH 7.4, and 0.2 mL of peptides at different concentrations (0.5, 1, 5, 10 and 20 mg/mL). All reagents were then thoroughly mixed in a tube and 0.2 mL of 10 mM hydrogen peroxide was added. The reaction mixture was then incubated at 37 °C for 1 h. Following incubation, 1 mL of 2.8% TCA and 1 mL of 1.0% TBA were added to the test tubes, and the contents boiled for 15 min. After cooling at room temperature, the absorbance of the mixture was measured at 532 nm. Trolox and BHT (both used at concentration 0.2 mg/mL) were also tested as positive controls for comparison. The HRSA was evaluated as a percentage of α-deoxyribose oxidation inhibition by the hydroxyl radical and calculated as follows: HRSA (%)=AC−AS/AC×100 where AC is the absorbance for negative control using 500 μL deionized water instead of sample, AS is the absorbance of the sample or positive controls (trolox/BHT).

[4] = Lipid oxidation in linoleic acid model system, TBARS method; details: positive control 0.2 mg/mL; after four days incubation at 40 °C; 532 nm; mean of three independent experiments
Procedure: (§1) The inhibition of lipid peroxidation by the EYPH fractions was measured using linoleic acid oxidized as described below. The degree of oxidation was measured using (FTC) and (TBARS) methods. In order to prepare the reaction mixture, 50 mg of each sample was dissolved individually with 10 mL absolute ethanol, 0.13 mL linoleic acid, 4.87 mL distilled water and 10 mL 50 mM sodium phosphate buffer (pH 7). Samples were homogenized by a sonicator (Labsonic® M, B. Braun Biotech International, Melsungen, Germany). The tubes were then sealed tightly with silicone rubber caps and kept in the dark at 40 °C in an oven. […] A negative control was prepared in the same manner using distilled water in place of egg yolk hydrolysates. The commercial antioxidants, 0.2 mg/mL of BHT and trolox were also used as positive controls. […] The absorbance of the upper layer was measured at 532 nm using a spectrophotometer (Kontron Instrument UNIKON 860) Malonaldehyde standard curve was prepared using 1,1,3,3-tetramethoxypropane and TBARS were expressed as μg of malonaldehyde/mL. The percentage (%) of lipid oxidation inhibition was calculated according to the following formula: Lipid oxidation inhibition (%)=Absorbance of control − Absorbance of sample/Absorbance of control×100

[5] = Lipid oxidation in linoleic acid model system, ferric thiocyanate (FTC) method; details: positive control 0.2 mg/mL; after four days incubation at 40 °C; 500 nm; mean of three independent experiments
Procedure: as §1, with “[…] After exactly 3 min, the absorbance” for “The commercial antioxidants, 0.2 mg/mL”, “the resulting ferric thiocyanate solution was read at 500 nm using a spectrophotometer (Kontron Instrument UNIKON 860, Cambridge, UK).” for “BHT and trolox were also used as positive controls.”

[6] = Ferrous chelating activity assay (ferrozine); details: EDTA 0.2 mg/mL, 10 min room temperature, 563 nm, mean ± SD of three independent experiments
Procedure: The activity of the peptide to chelate ferrous Fe^2+ ions was measured according to the method of Ebrahimzadeh et al.. The reaction mixture contained 0.5 mL of isolated peptides at different concentrations (0.5, 1, 5, 10 and 20 mg/mL), 1.6 mL deionized water and 0.05 mL of 2 mM FeCl2. After 30 s, 0.1 mL of 5 mM ferrozine was added. After 10 min at room temperature, the absorbance of the Fe^2+-ferrozine complex was measured at 563 nm. EDTA (0.2 mg/mL) was also tested as a positive control for comparison. The activity of the peptide to chelate Fe^2+ was calculated as: Chelating ability (%) =AC−AS/AC×100 where AC is the absorbance of the control, using 0.5 mL deionized water instead of sample, AS is the absorbance of the sample or positive control EDTA.

[7] = biological target: angiotensin converting enzyme (ACE) (Homo sapiens, UniProt P12821); assay: ACE inhibitory activity by HPLC (HHL substrate, hippuric acid at 228 nm); details: peptide 10 mg/mL versus captopril 0.5 mg/mL, Dunnett's test, p < 0.05, Figure 8
angiotensin converting enzyme (ACE), sequence (P12821 30-1306, species assumed): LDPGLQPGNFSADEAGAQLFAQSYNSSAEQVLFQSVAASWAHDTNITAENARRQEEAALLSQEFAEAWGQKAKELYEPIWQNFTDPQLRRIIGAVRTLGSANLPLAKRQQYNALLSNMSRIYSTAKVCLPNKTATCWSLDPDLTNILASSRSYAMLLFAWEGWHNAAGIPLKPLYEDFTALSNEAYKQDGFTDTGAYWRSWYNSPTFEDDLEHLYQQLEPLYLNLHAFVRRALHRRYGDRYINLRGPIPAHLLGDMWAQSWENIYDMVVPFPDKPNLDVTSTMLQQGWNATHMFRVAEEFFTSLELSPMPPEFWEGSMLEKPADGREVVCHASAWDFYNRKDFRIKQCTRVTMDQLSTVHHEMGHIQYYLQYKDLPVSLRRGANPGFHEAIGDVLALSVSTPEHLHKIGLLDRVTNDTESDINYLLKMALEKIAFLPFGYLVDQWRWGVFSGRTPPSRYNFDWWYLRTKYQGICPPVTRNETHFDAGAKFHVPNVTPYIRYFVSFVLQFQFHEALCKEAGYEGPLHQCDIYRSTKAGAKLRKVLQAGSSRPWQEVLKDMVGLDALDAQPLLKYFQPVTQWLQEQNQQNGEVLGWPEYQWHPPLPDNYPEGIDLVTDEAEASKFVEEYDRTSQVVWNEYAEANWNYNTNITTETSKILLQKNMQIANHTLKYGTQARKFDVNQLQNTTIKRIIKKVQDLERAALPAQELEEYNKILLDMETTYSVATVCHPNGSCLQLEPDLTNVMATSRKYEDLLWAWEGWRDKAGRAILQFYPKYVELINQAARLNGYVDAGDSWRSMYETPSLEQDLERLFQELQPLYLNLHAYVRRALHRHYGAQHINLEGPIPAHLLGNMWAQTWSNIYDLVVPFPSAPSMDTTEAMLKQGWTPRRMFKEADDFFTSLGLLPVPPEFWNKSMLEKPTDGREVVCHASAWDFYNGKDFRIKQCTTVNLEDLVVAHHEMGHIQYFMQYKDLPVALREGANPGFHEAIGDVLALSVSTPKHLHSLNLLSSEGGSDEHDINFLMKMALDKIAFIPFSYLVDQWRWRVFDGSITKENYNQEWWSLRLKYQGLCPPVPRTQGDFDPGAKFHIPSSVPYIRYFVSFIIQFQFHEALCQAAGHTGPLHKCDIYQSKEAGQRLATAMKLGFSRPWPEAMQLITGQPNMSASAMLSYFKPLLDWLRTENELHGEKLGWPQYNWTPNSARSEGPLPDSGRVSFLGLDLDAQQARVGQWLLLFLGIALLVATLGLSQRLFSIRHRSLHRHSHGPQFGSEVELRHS
Procedure: The measurement of ACE inhibitory activity was conducted using HPLC in accordance with a modified method of Wu et al. [53]. All samples were prepared with 100 mM borate buffer, containing 300 mM NaCl at pH = 8.3. […] The peptide fractions and HHL were mixed and maintained at 37 °C for 10 min in 2 mL polyethylene microcentrifuge tubes. ACE was maintained at 37 °C for 10 min before the two solutions were combined. The combined mixture was incubated at 37 °C for 30 min with continuous agitation. In order to terminate the reaction, 85 μL of 1 M HCl was added. Samples were analyzed on a C18 column (3.0 mm × 150 mm, 5 μm, phenomenex) and hippuric acid (HA) and HHL were detected at 228 nm using HPLC system (Ultimate 3000 HPLC, Thermo Fisher Scientific Inc., Loughborough, UK). Data were analyzed using integration software (Chromeleon, Thermo Fisher Scientific Inc., Loughborough, UK).

## Cc1cc(C(C)(C)C)c(O)c(C(C)(C)C)c1 [BHT, butylated hydroxyltoluene]
[1]
  DPPH Scavenging activity: 23.6%
[1]; SD
  DPPH Scavenging activity: 23.60% ± 1.66%
[2]
  Superoxide anion scavenging activity: 67.45% ± 1.67%
[3]
  Hydroxyl radical scavenging activity: 58.97% ± 1.02%
[4]
  Lipid Oxidation (%), TBARS method: 26.1%
[5]
  Lipid Oxidation (%), FTC method: 23.3%

## O=C(O)CN(CCN(CC(=O)O)CC(=O)O)CC(=O)O [EDTA]
[6]
  Fe2+ chelating activity: 97.54% ± 1.79%

## Cc1c(C)c2c(c(C)c1O)CCC(C)(C(=O)O)O2 (centres unmarked) [Trolox, trolox]
[1]
  DPPH Scavenging activity: 38.5%
[1]; SD
  DPPH Scavenging activity: 38.46% ± 1.43%
[2]
  Superoxide anion scavenging activity: 63.48% ± 1.63%
[3]
  Hydroxyl radical scavenging activity: 70.03% ± 3.48%
[4]
  Lipid Oxidation (%), TBARS method: 28.7%
[5]
  Lipid Oxidation (%), FTC method: 32.2%

## KLSDW
[1]
  Antioxidant activity (DPPH scavenging) of peptide compared with synthetic antioxidant: not significantly different from the synthetic BHA antioxidant

## SDNRNQGY
[7]
  ACE inhibitory activity of synthesized peptide compared with captopril: not significantly different from that of the positive control captopril

## WYGPD
[1]
  Antioxidant activity (DPPH scavenging) of peptide compared with synthetic antioxidant: not significantly different from the synthetic BHA antioxidant

## YPSPV
[7]
  ACE inhibitory activity of synthesized peptide compared with captopril: higher ACE inhibitory activity compared with captopril
